Columns and labels:
κ opioid receptor = biological target: T1, κ opioid receptor (Homo sapiens, UniProt P41145); assay: κ-opioid receptor [35S]GTPγS functional assay; format: biochemical
T1 construct: expressed in transfected cells; host or cells: HEK-293 (inferred from the in-house κ membrane preparation)
Procedure: Functional [^35S]GTPγS binding assays were conducted as follows. κ opioid receptor membrane solution was prepared by sequentially adding final concentrations of 0.026 μg/μl κ membrane protein (in-house), 10 μg/mL saponin, 3 μM GDP and 0.20 nM [^35S]GTPγS to binding buffer (100 mM NaCl, 10 mM MgCl2, 20 mM HEPES, pH 7.4) on ice. The prepared membrane solution (190 μl/well) was transferred to 96-shallow well polypropylene plates containing 10 μl of 20× concentrated stock solutions of agonist prepared in DMSO. Plates were incubated for 30 min at a temperature of about 25° C. with shaking. Reactions were terminated by rapid filtration onto 96-well Unifilter GF/B filter plates (Perkin Elmer, Shelton, Conn.) using a 96-well tissue harvester (Packard) and followed by three filtration washes with 200 μl ice-cold binding buffer (10 mM NaH2PO4, 10 mM Na2HPO4, pH 7.4). Filter plates were subsequently dried at 50° C. for 2-3 hours. Fifty μ1/well scintillation cocktail (Perkin Elmer, Shelton, Conn.) was added and plates were counted in a Packard Top-Count for 1 min/well.
κ GTP EC50 is the concentration of a compound providing 50% of the maximal response for the compound at a κ receptor.
κ GTP Emax (%) is the maximal effect elicited by a compound relative to the effect elicited by U69,593.

[1] = biological target: T2, human kappa opioid receptor (κ) (Homo sapiens, UniProt P41145); assay: κ-opioid receptor radioligand ([3H]-U69,593) dose displacement binding assay
T2 construct: expressed in transfected cells; host or cells: HEK-293
Procedure: Membranes from recombinant HEK-293 cells expressing the human kappa opioid receptor (κ) (cloned in house) were prepared by lysing cells in ice cold hypotonic buffer (2.5 mM MgCl2, 50 mM HEPES, pH 7.4) (10 mL/10 cm dish) followed by homogenization with a tissue grinder/Teflon pestle. Membranes were collected by centrifugation at 30,000×g for 15 min at 4° C. and pellets were resuspended in hypotonic buffer to a final concentration of 1-3 mg/mL. Protein concentrations were determined using the BioRad protein assay reagent with bovine serum albumen as standard. Aliquots of κ receptor membranes were stored at −80° C.
Radioligand dose displacement assays used 0.4 nM [^3H]-U69,593 (GE Healthcare, Piscataway, N.J.; 40 Ci/mmole) with 15 μg membrane protein (recombinant κ opioid receptor expressed in HEK 293 cells; in-house prep) in a final volume of 200 μl binding buffer (5% DMSO, 50 mM Trizma base, pH 7.4). Non-specific binding was determined in the presence of 10 μM unlabeled naloxone or U69,593. All reactions were performed in 96-well polypropylene plates for 1 hour at a temperature of about 25° C. […] Fifty μl/well scintillation cocktail (Perkin Elmer, Shelton, Conn.) was added and plates were counted in a Packard Top-Count for 1 min/well.

μ-opioid receptor = biological target: T3, μ-opioid receptor (Homo sapiens, UniProt P35372); assay: μ-opioid receptor [35S]GTPγS functional assay; format: biochemical; details: for Emax: maximal effect relative to DAMGO
T3 construct: purchased Perkin Elmer, Shelton, Conn
Procedure: [^35S]GTPγS functional assays were conducted using freshly thawed μ-receptor membranes (Perkin Elmer, Shelton, Conn.). Assay reactions were prepared by sequentially adding the following reagents to binding buffer (100 mM NaCl, 10 mM MgCl2, 20 mM HEPES, pH 7.4) on ice (final concentrations indicated): membrane protein (0.026 mg/mL), saponin ([…]), GDP ([…]) and [^35S]GTPγS (0.20 nM; Perkin Elmer, Shelton, Conn.). The prepared membrane solution (190 μl/well) was transferred to 96-shallow well polypropylene plates containing 10 μl of 20× concentrated stock solutions of the agonist [D-Ala^2, N-methyl-Phe^4 Gly-ol^5]-enkephalin (DAMGO) prepared in dimethyl sulfoxide (DMSO). Plates were incubated for 30 min at about 25° C. with shaking. Reactions were terminated by rapid filtration onto 96-well Unifilter GF/B filter plates (Perkin Elmer, Shelton, Conn.) using a 96-well tissue harvester (Perkin Elmer, Shelton, Conn.) followed by three filtration washes with 200 μl of ice-cold wash buffer (10 mM NaH2PO4, 10 mM Na2HPO4, pH 7.4). Filter plates were subsequently dried at 50° C. for 2-3 hours. BetaScint scintillation cocktail (Perkin Elmer, Shelton, Conn.) was added (50 μl/well) and plates were counted using a Packard Top-Count for 1 min/well. Data were analyzed using the sigmoidal dose-response curve fitting functions in GraphPad PRISM v. 3.0, or an in-house function for non-linear, sigmoidal dose-response curve-fitting.
μ GTP EC50 is the concentration of a compound providing 50% of the maximal response for the compound at a μ-opioid receptor.
μ GTP Emax (%) is the maximal effect elicited by a compound relative to the effect elicited by DAMGO, a standard agonist. Generally, the μ GTP Emax (%) value measures the efficacy of a compound to treat or prevent pain or other Conditions.

T3 sequence (P35372 whole entry, species assumed): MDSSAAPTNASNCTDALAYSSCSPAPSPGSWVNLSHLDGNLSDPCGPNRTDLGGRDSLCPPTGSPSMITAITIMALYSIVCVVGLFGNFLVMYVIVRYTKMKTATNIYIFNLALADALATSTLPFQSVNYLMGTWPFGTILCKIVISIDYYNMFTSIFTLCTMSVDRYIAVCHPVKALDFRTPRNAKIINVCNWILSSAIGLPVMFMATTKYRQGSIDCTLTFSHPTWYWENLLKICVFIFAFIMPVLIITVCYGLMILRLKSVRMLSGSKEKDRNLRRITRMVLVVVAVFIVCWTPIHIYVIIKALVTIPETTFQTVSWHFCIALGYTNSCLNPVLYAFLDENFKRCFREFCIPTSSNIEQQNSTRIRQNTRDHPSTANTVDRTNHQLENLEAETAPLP
T1 sequence (P41145 whole entry): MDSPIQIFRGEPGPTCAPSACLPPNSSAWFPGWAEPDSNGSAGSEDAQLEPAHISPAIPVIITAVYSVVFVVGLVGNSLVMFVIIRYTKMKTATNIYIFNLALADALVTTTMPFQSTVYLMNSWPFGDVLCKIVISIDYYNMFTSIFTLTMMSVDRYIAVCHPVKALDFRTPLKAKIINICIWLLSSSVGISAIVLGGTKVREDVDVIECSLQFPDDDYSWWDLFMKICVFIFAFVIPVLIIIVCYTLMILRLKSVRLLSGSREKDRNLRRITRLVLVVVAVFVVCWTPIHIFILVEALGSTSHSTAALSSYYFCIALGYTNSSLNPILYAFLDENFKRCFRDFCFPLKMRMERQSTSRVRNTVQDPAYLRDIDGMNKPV
T2 sequence (P41145 whole entry): as above

SMILES | EC50 (κ opioid receptor) [nM] | Emax (κ opioid receptor; maximal effect relative to U69,593) [%] | Ki [1] [nM] | EC50 (μ-opioid receptor) [nM] | Emax (μ-opioid receptor) [%]
CCN1C(=O)N(CC)[C@]2(CC[C@H]3[C@H]4Cc5ccc(O)cc5[C@@]3(CCN4C)C2)C1=O [Compound 21, (4S,4b′S,8a′R,9′R)-1,3-diethyl-3′-hydroxy-11′-methyl-8′,8a′,9′,10′-tetrahydro-5′H,7′H-spiro[imidazolidine-4,6′-[9,4b](epiminoethano)phenanthrene]-2,5-dione] | 221 ± 22.6 | 56.7 ± 3.66 | 10.5 ± 1.11 | 54.7 ± 7.76 | 24.7 ± 2.46
COc1ccc2c(c1)[C@]13CCN(CCN(C)C)[C@H](C2)[C@]1(O)CC[C@]1(C3)C(=O)N(CC2CC2)C(=O)N1CC1CC1 [Compound 15, (4S,4b′R,8a′S,9′R)-1,3-bis(cyclopropylmethyl)-11′-(2-(dimethylamino)ethyl)-8a′-hydroxy-3′-methoxy-8′,8a′,9′,10′-tetrahydro-5′H,7′H-spiro[imidazolidine-4,6′-[9,4b]-(epiminoethano)phenanthrene]-2,5-dione] | – | – | – | > 20000 | 1
CN(C)CCN1CC[C@]23C[C@@]4(CC[C@@]2(O)[C@H]1Cc1ccc(O)cc13)C(=O)N(CC1CC1)C(=O)N4CC1CC1 [Compound 25, (4S,4b′R,8a′S,9′R)-1,3-bis(cyclopropylmethyl)-11′-(2-(dimethylamino)ethyl)-3′,8a′-dihydroxy-8′,8a′,9′,10′-tetrahydro-5′H,7′H-spiro[imidazolidine-4,6′-[9,4b](epiminoethano)-phenanthrene]-2,5-dione] | – | – | – | > 20000 | 1
CCN1C(=O)N(CC)[C@]2(CC[C@@]3(O)[C@H]4Cc5ccc(C#N)cc5[C@@]3(CCN4C)C2)C1=O [Compound 32, (4S,4b′R,8a′S,9′R)-1,3-diethyl-8a′-hydroxy-11′-methyl-2,5-dioxo-8′,8a′,9′,10′-tetrahydro-5′H,7′H-spiro[imidazolidine-4,6′-[9,4b](epiminoethano)phenanthrene]-3′-carbonitrile] | – | – | – | > 20000 | 16.3 ± 1.76

From patent publication US10030021B2, “Spirocyclic morphinans and use thereof” (Purdue Pharma L.P., priority 2014, dated 2018)
